In patent US7591979B2 (priority 2003, dated 2009):
Values joined by “and” are separate entries in the source; they are usually repeats but may differ in a detail not shown here. Equal values may be shown once.

Tested on: naturally-occurring algae from water samples of the Clinch River
Type: cell-based, naturally occurring freshwater algae

## COP(=S)(OC)Oc1ccc([N+](=O)[O-])cc1 [MPt, Methyl Parathion]
  Percentage (%) decrease in photochemical yield: −5.41% and −7.80% and −3.19%
